We go through four compounds from patent publication EP3744709B1, “NEW CRYSTAL FORM OF TEMBOTRIONE” (ANHUI JIUYI AGRICULTURE CO., LTD., priority 2018, dated 2020).

Each structure is given as a SMILES string. ≈ marks a conversion by molar mass, not a printed value.

Data set [1] is described as follows: Dissolution rate test (suspension in methanol/water with temperature cycling, decomposition after 14 days). Type of data set: physicochemical. The conditions noted are these: suspended in methanol : water 1 : 5 (volume), 10-30° C, 14 days later; for decomposition rate: temperature periodically changed at 0.5K/min. The method, then: Further, in the present disclosure, the dissolution rate of crystal from D of tembotrione was tested as following: the crystal form D of tembotrione was suspended in a mixture of methanol and water (the volume ratio of methanol : water was 1 : 5) at a temperature of 10-30° C, and the temperature was changed at a rate of 0.5K/min. […] Crystal forms A, B, C and D of tembotrione were suspended in a mixture of methanol and water (the volume ratio of methanol to water was 1 : 5) at a temperature of 10-30° C, and the temperature was periodically changed at a rate of 0.5K/min.

Another data set in a line: physchem. The format is physicochemical. The conditions noted are these: for solubility: 25 °C, thermodynamic from solid; for Solubility, water: pH 4. Here is the method:
At 25±2°C, 100mL (which may be scaled down) solvent was added in a beaker. A certain mass of crystal forms A, B, C and D of tembotrione were weighted (to ensure insufficient dissolution, tembotrione may be weighted more than once if necessary and the total mass was calculated). The solute was gradually added, continuously stirred and sufficiently dissolved until the solution was exactly saturated (if there was solid precipitation, it was filtrated out and dried, and put back to the undissolved solid). Total mass of the undissolved solid was weighted to calculate the mass of the dissolved solid in 100mL (100g) solvent, i.e., the solubility of the solid in the solvent at the temperature. In the present disclosure, solubility of crystal forms A, B, C and D of tembotrione in several common solvents were tested, and the results were shown in Table 2. Table 2 Solubility of crystal forms A, B, C and D of tembotrione in different solvents

In data set [1], `CS(=O)(=O)c1ccc(C(=O)C2C(=O)CCCC2=O)c(Cl)c1COCC(F)(F)F` [crystal form A, 2-[2-chloro-4-methylsulfonyl-3-(2,2,2-trifluoroethoxymethyl)benzoyl]cyclohexane-1,3-dione] showed a decomposition rate of 0.1%. In addition, the solubility came out at 8600 µg/mL (≈ 19.5 mM) in the data set “physchem” (organic solvent or mixture, methanol); 80000 µg/mL (≈ 181 mM) in the data set “physchem” (organic solvent or mixture, toluene); 260 µg/mL (≈ 0.59 mM) in the data set “physchem” (pH 4, aqueous buffer, water).
Consider `CS(=O)(=O)c1ccc(C(=O)C2C(=O)CCCC2=O)c(Cl)c1COCC(F)(F)F` [crystal form B, 2-[2-chloro-4-methylsulfonyl-3-(2,2,2-trifluoroethoxymethyl)benzoyl]cyclohexane-1,3-dione], for which, in data set [1], the decomposition rate is reported as 0.4%. In addition, in “physchem”, the “Solubility, methanol” value was 8800 µg/mL (≈ 20 mM); the “Solubility, toluene” value amounted to 81000 µg/mL (≈ 184 mM); the “Solubility, water” value was 280 µg/mL (≈ 0.635 mM).
Taken in the same sequence, the figures for `CS(=O)(=O)c1ccc(C(=O)C2C(=O)CCCC2=O)c(Cl)c1COCC(F)(F)F` [crystal form C, 2-[2-chloro-4-methylsulfonyl-3-(2,2,2-trifluoroethoxymethyl)benzoyl]cyclohexane-1,3-dione] were 0.15%, 8500 µg/mL (≈ 19.3 mM), 80200 µg/mL (≈ 182 mM) and 250 µg/mL (≈ 0.567 mM).
Take `CS(=O)(=O)c1ccc(C(=O)C2C(=O)CCCC2=O)c(Cl)c1COCC(F)(F)F` [crystal form D, 2-[2-chloro-4-methylsulfonyl-3-(2,2,2-trifluoroethoxymethyl)benzoyl]cyclohexane-1,3-dione]: in data set [1] (0.5K/min), the dissolution rate result is on record as “slow”. Besides, the decomposition rate in data set [1] is reported as 0.06%. In the data set “physchem”, the “Solubility, methanol” value is 8200 µg/mL (≈ 18.6 mM); the “Solubility, toluene” value turned out to be 75700 µg/mL (≈ 172 mM); the “Solubility, water” value worked out at 220 µg/mL (≈ 0.499 mM).
